One test concerns dorsal air pouch of mice. Briefly: In vivo air pouch model. The note with it: 1 μg/mice into air pouch, 24 h. On the procedure:
FIG. 3: Mice were treated with IL-17 vehicle (Ctrl), IL-17 (1 μg/mice) alone (IL-17) or peptide (FM-0410) (1 μg/mice) and thereafter total cell number from pouches inflammatory exudates was evaluated at 24 h. Data were expressed as millions of cells for pouch and presented as means±S.D. of n=7 mice per group. Statistical analysis was conducted by one-way ANOVA followed by Bonferroni's for multiple comparisons. ^##P≤0.01, ^###P≤0.005 vs Ctrl group; *P≤0.05 vs IL-17 group.
FIG. 4: Inflammatory supernatants obtained from the pouch cavities were assayed using a Proteome Profiler Cytokine Array for Ctrl, IL-17 and FM-0410 experimental group. Densitometric analysis is presented as heatmap. Data (expressed as INT/mm2) are presented as means±S.D. of positive spots of three independent experiments run each with n=7 mice per group.
FIG. 5: Mice were treated with IL-17 vehicle (Ctrl), IL-17 (1 μg/mice), or peptide (FM-0410) (1 μg/mice) and inflammatory fluids were assayed by Elisa for IL-6. Data were expressed as pg/ml and presented as means±S.D. of n=7 mice per group. Statistical analysis was conducted by one-way ANOVA followed by Bonferroni's for multiple comparisons. ^##P≤0.01 vs CTRL group. […]
Specifically, dorsal air pouches were prepared by injection of 2.5 ml of air on day 0 and day 3 as previously described (Maione et al., 2009). […] Inflammatory exudates were collected and measured to evaluate the level of inflammatory cyto-chemokines. Cell number was determined by TC20 automated cell counter (Bio-Rad, Milan, Italy) using Bio-Rad's TC20 automated cell counter uses disposable slides, TC20 trypan blue dye (0.4% trypan blue dye w/v in 0.81% sodium chloride and 0.06% potassium phosphate dibasic solution) and a CCD camera to count cells based on the analyses of capture images (Maione et al., 2018).
Methods: The levels of IL-6 in the cellular and air pouch inflammatory supernatants at 24 h were measured using commercially available enzyme-linked immunosorbent assay kit (ELISA kit, R&D System, Milan, Italy) according to the manufacturer instructions. […]

The test system of another test is neutrophils. Briefly: Transwell chemotaxis assay. It is filed as cell-based, human. As to the method:
The cells migration after IL-17 (10-500 ng/ml), FM-0410 (10-500 ng/ml) or N-Formylmethionine-leucyl-phenylalanine (fmlp; 10^−6 M) treatment was quantified using CountBright™ Absolute Counting Beads. Data were presented as means±S.D. of n=3 healthy donors. Statistical analysis was conducted by one-way ANOVA followed by Bonferroni's for multiple comparisons. ^#P≤0.05, ^##P≤0.01, ^###P≤0.001, ^####P≤0.0001 vs Ctrl group; ^+P≤0.05 vs IL-17. Neutrophil isolation: Blood was taken according to local research ethics committee approval (QMERC2014/61). Informed consent was provided according to the Declaration of Helsinki. All blood samples were collected on the day of experiments from healthy donors and immediately used. Each condition has 3 biological replicates (3 different donors). Neutrophils were isolated using a double density histopaque gradient and hypotonic lysis as described previously. Transwell chemotaxis assay: Chemotaxis was assessed using a transwell assay. […] After 2 hours at 37° C., neutrophils were collected from the bottom wells and quantified by flow cytometry using CountBright™ Absolute Counting Beads (Thermofisher, Rugby, UK) as previously described.

No end group written: not given here.

For Ac-LEKILVSVGATAVTPIVHHVAC [FM-0410], in the test with dorsal air pouch of mice, the “cyto-chemokines profile of pouch fluid (Proteome Profiler Cytokine Array)” value was “selective upregulation in a range of mediators”, the “level of IL-6 in pouch fluids” value is listed as “increased level of IL-6 compared to control group” and the “number of inflammatory leukocytes (total cell number from pouch exudates)” value was “marked increase in inflammatory infiltrates compared to control but also to IL-17-treated mice”. Further, in the test on neutrophils (500 ng/ml), the “chemotactic activity compared to positive control fmlp (10^−6 M)” value is on record as “almost similar to positive control fmlp”. Besides, the “chemotactic effect on neutrophils” value with neutrophils (10-500 ng/ml, vs Control group) is reported as “concentration-dependent chemotactic effect”.

The values above are taken from US20260035452A1 (THE UNIVERSITY OF BIRMINGHAM, priority 2022, published 2026).
